# Measurements taken from ChEMBL document CHEMBL6153074, “Discovery of novel dual tubulin and MMPs inhibitors for the treatment of lung cancer and overcoming drug resistance” (Eur J Med Chem, 2025).
# pIC50: −log10 of the molar value. Activity calls are given as the source filed them. The calls are words filed in the database; no cut-off is given here.
# Columns and labels:
# [1] = test system: MDA-MB-231; test: Antiproliferative activity against human MDA-MB-231 cells by CCK8 assay
# [2] = Stability of compound assessed as carboxylesterase (unknown origin)-mediated drug hydrolysis incubated for 4 hrs by RP-HPLC analysis; format: ADME; details: human
# [3] = test system: A549; test: Anti-migration activity in human A549 cells assessed as migration rate at 0.5 uM incubated for 24 hrs by wound healing assay (reference value: 73.94 %); format: functional
# [4] = test system: A549; test: Anti-migration activity in human A549 cells assessed as migration rate at 0.25 uM incubated for 24 hrs by wound healing assay (reference value: 73.94 %); format: functional
# [5] = test system: A549; test: Downregulation of IKK-beta phosphorylation in TNF-alpha-treated human A549 cells by Western blot analysis; format: functional, cell-based
# [6] = test system: A549; test: Induction of apoptosis in human A549 cells assessed as early apoptotic cells at 0.5 uM incubated for 24 hrs by Annexin V-FITC/PI staining based flow cytometry (reference value: 3.04 %); format: functional
# [7] = test system: A549; test: Induction of apoptosis in human A549 cells assessed as early apoptotic cells at 0.25 uM incubated for 24 hrs by Annexin V-FITC/PI staining based flow cytometry (reference value: 3.04 %); format: functional
# [8] = test system: A549; test: Induction of apoptosis in human A549 cells assessed as late apoptotic cells at 0.25 uM incubated for 24 hrs by Annexin V-FITC/PI staining based flow cytometry (reference value: 1.01 %); format: functional
# [9] = test system: A549; test: Induction of cell cycle arrest in human A549 cells assessed as accumulation at G1 phase at 0.5 uM incubated for 24 hrs by PI staining based flow cytometry (reference value: 58.67 %); format: functional
# [10] = test system: A549; test: Induction of cell cycle arrest in human A549 cells assessed as decrease in cyclin B1 by Western blot analysis; format: functional, cell-based
# [11] = test system: A549; test: Induction of DNA damage in human A549 cells assessed as increase in gamma-H2AX level at 0.5 uM incubated for 24 hrs by immunofluorescence based analysis; format: functional, cell-based
# [12] = test system: A549; test: Induction of apoptosis in human A549 cells assessed as increase in Bax level at 0.5 uM incubated for 24 hrs by Western blot analysis; format: functional, cell-based
# [13] = test system: A549; test: Induction of apoptosis in human A549 cells assessed as increase in cleaved caspase-3 level at 0.5 uM incubated for 24 hrs by Western blot analysis; format: functional, cell-based
# [14] = test system: A549; test: Anti-angiogenesis effect in human A549 cells assessed as disruption of tube-like network formation at 0.25 to 0.5 uM incubated for 6 hrs by tube formation assay; format: functional, cell-based; details: dose 0.25-0.5 µM
# [15] = Toxicity in BALB/c mouse xenografted with human A549 cells assessed as effect on liver at 10 to 20 mg/kg, ip for 3 weeks administered on every 2 days by H and E staining based analysis; format: organism-based; details: in vivo, 504 h, dose 10-20 mg/kg
# [16] = Toxicity in BALB/c mouse xenografted with human A549 cells assessed as effect on kidney at 10 to 20 mg/kg, ip for 3 weeks administered on every 2 days by H and E staining based analysis; format: organism-based; details: in vivo, 504 h, dose 10-20 mg/kg
compound,measurement,setting,value
CCOP(=O)(OCC)C(Nc1ccc(CC(=O)Oc2cc(/C=C/C(=O)c3cc(OC)c(OC)c(OC)c3)ccc2OC)cc1)c1cccc([N+](=O)[O-])c1 (stereo unspecified),pIC50,[1],6.53
same,Stability,[2],Unstable
same,Activity,[3],25.17%
same,Activity,[4],62.35%
same,Activity,[5],Active
same,Activity,[6],34.86%
same,Activity,[7],16.18%
same,Activity,[8],3.62%
same,Activity,[9],15.53%
same,Activity,[10],Active
same,Activity,[11],Active
same,Activity,[12],Active
same,Activity,[13],Active
same,Activity,[14],Active
same,Activity,[15],Non-toxic
same,Activity,[16],Non-toxic
